Measurements published in patent US7745574B2, “Compounds that regulate apoptosis” (The Burnham Institute, priority 2005, dated 2010).
[ ]: non-standard residue; d: D form. Ahx = NCCCCCC(=O)O

Legend:
H460 lung cancer cells = experiment: Apoptosis in H460 lung cancer cells; assay type: cell-based; conditions: alanine scan, H460 lung cancer cells
[1] = Induction of apoptosis by Nur77 peptides, cell line not stated; assay type: cell-based
Experimental: Apoptosis assays—For nuclear morphological change analysis, cells were trypsinized, washed with PBS, fixed with 3.7% paraformaldehyde, and stained with DAPI (4,6-diamidino-2-phenylindole) (50 μg/ml) to visualize the nuclei by UV-microscopy. The percentages of apoptotic cells were determined by counting 300 GFP-positive cells, scoring cells having nuclear fragmentation and/or chromatin condensation.

Bcl-2 [2] = molecular target: T1, Bcl-2 (Homo sapiens, UniProt P10415); experiment: Co-immunoprecipitation with Bcl-2 in HEK293T cells; assay type: binding; set-up: expressed in transfected cells; host or cells: HEK293T; conditions: peptide added
Experimental: Nur77 peptide binds anti-apoptotic Bcl-2 family members. Nur77-peptide binds Bcl-B, Bfl-1, and Bcl-2, but not Mcl-1 and Bcl-xL. […] The expression vector for the GFP-Nur77/489-497 fusion was transfected into HEK293T cells together with or without the indicated expression vector for myc-tagged Bcl-2 family member. Cell lysates were prepared and analyzed for interaction of Nur77/489-497 with Bcl-2 family members by co-immunoprecipitation assay using anti-Myc antibody. Immunoprecipitates were then separated on SDS/PAGE and immunoblotted using anti-GFP antibody. […] Nur77/Bcl-2 interaction assays—Reporter gene assays using NurRE-tk-CAT in CV-1 cells, and GST pull-down assay were described previously (Li, et al. 2000 Science 289:1159-1164). For the mammalian two-hybrid assays, CV-1 cells were co-transfected with pcDNA-Gal4TAD-Nur77 or pcDNA-Gal4TAD-Nur77/ΔDBD and pcDNA-Gal4 DBD-Bcl-2/ΔTM along with a luciferase reporter gene driven by four copies of the Gal-4-binding site. The cells were harvested and reporter gene activity was measured. For Co-IP assays, HEK293T cells were transiently transfected with various expression plasmids using a modified calcium phosphate precipitation method (Wu et al, 1997) in the presence of caspase inhibitors (zVAD-fmk) to prevent degradation of Nur77 protein due to apoptosis. Cells were suspended in lysis buffer (50 mM Tris-HCl, PH7.4; 150 mM NaCl; 20 mM EDTA; 1% NP-40; 1 mM PMSF; 50 μg/ml Leupeptin; […]; 0.1 mM Na3VO4; and 1 mM DTT). Cells extracts were cleared by incubation with the Protein A/G plus Agarose beads (Santa Cruz) and then incubated with appropriate antibody and 30 μl of Protein A or G plus Agarose beads overnight at 4° C. […] Immunoreactive products were detected by chemiluminescence with an enhanced chemiluminescence system (ECL) (Amersham).

Bcl-2 [3] = molecular target: T1, Bcl-2; experiment: Bcl-2 conformational change, anti-Bcl-2/BH3 antibody staining of HEK293T cells transfected with Bcl-2; assay type: cell-based; set-up: expressed in transfected cells; host or cells: HEK293T; conditions: flow cytometry
Experimental: Such a Bcl-2 conformation is recognized by an anti-Bcl-2 antibody raised against the Bcl-2 BH3 domain. To determine whether NuBCP-9 induced a Bcl-2 conformational change, flow cytometric assays were conducted which HEK293T cells transfected with Bcl-2 were exposed to NuBCPs and subsequently stained with the anti-Bcl-2/BH3 antibody.

T1 sequence (P10415 whole entry, the tested form may be a part): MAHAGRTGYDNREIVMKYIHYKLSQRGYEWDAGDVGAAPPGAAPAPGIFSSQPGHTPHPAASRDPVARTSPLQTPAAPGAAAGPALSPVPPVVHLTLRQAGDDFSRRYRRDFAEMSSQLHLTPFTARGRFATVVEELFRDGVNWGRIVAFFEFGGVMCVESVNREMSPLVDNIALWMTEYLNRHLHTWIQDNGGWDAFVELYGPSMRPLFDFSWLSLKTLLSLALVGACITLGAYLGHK

Substance	apoptotic effect of alanine-substituted Nur77-9 (H460 lung cancer cells)	induction of apoptosis [1]	other results
acetyl-FSRSAHSLLGXrrrrrrrr-amide (Ac-FSRSAHSLLG[Ahx][dR][dR][dR][dR][dR][dR][dR][dR]-NH2; SMILES CC(=O)N[C@@H](Cc1ccccc1)C(=O)N[C@@H](CO)C(=O)N[C@@H](CCCNC(=N)N)C(=O)N[C@@H](CO)C(=O)N[C@@H](C)C(=O)N[C@@H](Cc1c[nH]cn1)C(=O)N[C@@H](CO)C(=O)N[C@@H](CC(C)C)C(=O)N[C@@H](CC(C)C)C(=O)NCC(=O)NCCCCCC(=O)N[C@H](CCCNC(=N)N)C(=O)N[C@H](CCCNC(=N)N)C(=O)N[C@H](CCCNC(=N)N)C(=O)N[C@H](CCCNC(=N)N)C(=O)N[C@H](CCCNC(=N)N)C(=O)N[C@H](CCCNC(=N)N)C(=O)N[C@H](CCCNC(=N)N)C(=O)N[C@H](CCCNC(=N)N)C(N)=O) [SEQ ID NO: 62]	largely impaired	–	–
acetyl------------FAALSALVLGXrrrrrrrr-amide (Ac-FAALSALVLG[Ahx][dR][dR][dR][dR][dR][dR][dR][dR]-NH2; SMILES CC(=O)N[C@@H](Cc1ccccc1)C(=O)N[C@@H](C)C(=O)N[C@@H](C)C(=O)N[C@@H](CC(C)C)C(=O)N[C@@H](CO)C(=O)N[C@@H](C)C(=O)N[C@@H](CC(C)C)C(=O)N[C@H](C(=O)N[C@@H](CC(C)C)C(=O)NCC(=O)NCCCCCC(=O)N[C@H](CCCNC(=N)N)C(=O)N[C@H](CCCNC(=N)N)C(=O)N[C@H](CCCNC(=N)N)C(=O)N[C@H](CCCNC(=N)N)C(=O)N[C@H](CCCNC(=N)N)C(=O)N[C@H](CCCNC(=N)N)C(=O)N[C@H](CCCNC(=N)N)C(=O)N[C@H](CCCNC(=N)N)C(N)=O)C(C)C) [SEQ ID NO: 17]	–	apoptotic	–
acetyl------------FGDWIDSILGXrrrrrrrr-amide (Ac-FGDWIDSILG[Ahx][dR][dR][dR][dR][dR][dR][dR][dR]-NH2; SMILES CC[C@H](C)[C@H](NC(=O)[C@H](CO)NC(=O)[C@H](CC(=O)O)NC(=O)[C@@H](NC(=O)[C@H](Cc1c[nH]c2ccccc12)NC(=O)[C@H](CC(=O)O)NC(=O)CNC(=O)[C@H](Cc1ccccc1)NC(C)=O)[C@@H](C)CC)C(=O)N[C@@H](CC(C)C)C(=O)NCC(=O)NCCCCCC(=O)N[C@H](CCCNC(=N)N)C(=O)N[C@H](CCCNC(=N)N)C(=O)N[C@H](CCCNC(=N)N)C(=O)N[C@H](CCCNC(=N)N)C(=O)N[C@H](CCCNC(=N)N)C(=O)N[C@H](CCCNC(=N)N)C(=O)N[C@H](CCCNC(=N)N)C(=O)N[C@H](CCCNC(=N)N)C(N)=O) [SEQ ID NO: 16]	–	apoptotic	–
acetyl-FSRSLHSLAGXrrrrrrrr-amide (Ac-FSRSLHSLAG[Ahx][dR][dR][dR][dR][dR][dR][dR][dR]-NH2; SMILES CC(=O)N[C@@H](Cc1ccccc1)C(=O)N[C@@H](CO)C(=O)N[C@@H](CCCNC(=N)N)C(=O)N[C@@H](CO)C(=O)N[C@@H](CC(C)C)C(=O)N[C@@H](Cc1c[nH]cn1)C(=O)N[C@@H](CO)C(=O)N[C@@H](CC(C)C)C(=O)N[C@@H](C)C(=O)NCC(=O)NCCCCCC(=O)N[C@H](CCCNC(=N)N)C(=O)N[C@H](CCCNC(=N)N)C(=O)N[C@H](CCCNC(=N)N)C(=O)N[C@H](CCCNC(=N)N)C(=O)N[C@H](CCCNC(=N)N)C(=O)N[C@H](CCCNC(=N)N)C(=O)N[C@H](CCCNC(=N)N)C(=O)N[C@H](CCCNC(=N)N)C(N)=O) [SEQ ID NO: 64]	largely impaired	–	–
acetyl-ASRSLHSLLGXmmrrr-amide [SEQ ID NO: 61]	largely impaired	–	–
acetyl------------llshlsrsfGXrrrrrrrr-amide (Ac-[dL][dL][dS][dH][dL][dS][dR][dS][dF]G[Ahx][dR][dR][dR][dR][dR][dR][dR][dR]-NH2; SMILES CC(=O)N[C@H](CC(C)C)C(=O)N[C@H](CC(C)C)C(=O)N[C@H](CO)C(=O)N[C@H](Cc1c[nH]cn1)C(=O)N[C@H](CC(C)C)C(=O)N[C@H](CO)C(=O)N[C@H](CCCNC(=N)N)C(=O)N[C@H](CO)C(=O)N[C@H](Cc1ccccc1)C(=O)NCC(=O)NCCCCCC(=O)N[C@H](CCCNC(=N)N)C(=O)N[C@H](CCCNC(=N)N)C(=O)N[C@H](CCCNC(=N)N)C(=O)N[C@H](CCCNC(=N)N)C(=O)N[C@H](CCCNC(=N)N)C(=O)N[C@H](CCCNC(=N)N)C(=O)N[C@H](CCCNC(=N)N)C(=O)N[C@H](CCCNC(=N)N)C(N)=O) [Nur77/1(retro-inverso)]	–	apoptotic	–
acetyl-FSRSLHSALGXrrrrrrrr-amide (Ac-FSRSLHSALG[Ahx][dR][dR][dR][dR][dR][dR][dR][dR]-NH2; SMILES CC(=O)N[C@@H](Cc1ccccc1)C(=O)N[C@@H](CO)C(=O)N[C@@H](CCCNC(=N)N)C(=O)N[C@@H](CO)C(=O)N[C@@H](CC(C)C)C(=O)N[C@@H](Cc1c[nH]cn1)C(=O)N[C@@H](CO)C(=O)N[C@@H](C)C(=O)N[C@@H](CC(C)C)C(=O)NCC(=O)NCCCCCC(=O)N[C@H](CCCNC(=N)N)C(=O)N[C@H](CCCNC(=N)N)C(=O)N[C@H](CCCNC(=N)N)C(=O)N[C@H](CCCNC(=N)N)C(=O)N[C@H](CCCNC(=N)N)C(=O)N[C@H](CCCNC(=N)N)C(=O)N[C@H](CCCNC(=N)N)C(=O)N[C@H](CCCNC(=N)N)C(N)=O) [SEQ ID NO: 63]	largely impaired	–	–
Smac-peptide-r8: Smac peptide conjugated with r8, apoptosis-inducing comparison peptide (Ac-AVPIAQKC[Ahx][dR][dR][dR][dR][dR][dR][dR][dR]-NH2; also: Cys thiol joined to chloroacetyl-Ahx by thioether) [reference compound]	–	–	inhibition of co-precipitation of GFP-Nur77/489-497 with Bcl-2 (Bcl-2 [2]): not; Bcl-2 immunofluorescence by anti-Bcl-2/BH3 antibody (Bcl-2 [3]): did not show any Bcl-2 immunofluorescence
acetyl------------LLSHLSRSFGXrrrrrrrr-amide (Ac-LLSHLSRSFG[Ahx][dR][dR][dR][dR][dR][dR][dR][dR]-NH2; not fully specified; printed as acetyl------------LLSHLSRSFGXrrrrrrrr-amide) [Nur77/1 (inverso)]	–	apoptotic	–
acetyl------------FYLKLEDLVGXrrrrrrrr-amide (Ac-FYLKLEDLVG[Ahx][dR][dR][dR][dR][dR][dR][dR][dR]-NH2; SMILES CC(=O)N[C@@H](Cc1ccccc1)C(=O)N[C@@H](Cc1ccc(O)cc1)C(=O)N[C@@H](CC(C)C)C(=O)N[C@@H](CCCCN)C(=O)N[C@@H](CC(C)C)C(=O)N[C@@H](CCC(=O)O)C(=O)N[C@@H](CC(=O)O)C(=O)N[C@@H](CC(C)C)C(=O)N[C@H](C(=O)NCC(=O)NCCCCCC(=O)N[C@H](CCCNC(=N)N)C(=O)N[C@H](CCCNC(=N)N)C(=O)N[C@H](CCCNC(=N)N)C(=O)N[C@H](CCCNC(=N)N)C(=O)N[C@H](CCCNC(=N)N)C(=O)N[C@H](CCCNC(=N)N)C(=O)N[C@H](CCCNC(=N)N)C(=O)N[C@H](CCCNC(=N)N)C(N)=O)C(C)C) [SEQ ID NO: 18]	–	apoptotic	–
acetyl---F——L_LLGXrrrrrrrr-amide (Ac-FLLLG[Ahx][dR][dR][dR][dR][dR][dR][dR][dR]-NH2; SMILES CC(=O)N[C@@H](Cc1ccccc1)C(=O)N[C@@H](CC(C)C)C(=O)N[C@@H](CC(C)C)C(=O)N[C@@H](CC(C)C)C(=O)NCC(=O)NCCCCCC(=O)N[C@H](CCCNC(=N)N)C(=O)N[C@H](CCCNC(=N)N)C(=O)N[C@H](CCCNC(=N)N)C(=O)N[C@H](CCCNC(=N)N)C(=O)N[C@H](CCCNC(=N)N)C(=O)N[C@H](CCCNC(=N)N)C(=O)N[C@H](CCCNC(=N)N)C(=O)N[C@H](CCCNC(=N)N)C(N)=O) [SEQ ID NO: 40]	–	apoptotic	–
